Legend:
Test in all cases: In vitro kinase inhibition assay (HotSpot, Reaction Biology)
Format in all cases: biochemical
EGFR = target: T1, EGFR (Homo sapiens, UniProt P00533); details: single dose of 10 µM; 10 µM ATP as printed; read-out: Percent Inhibition, EGFR
T1 construct: purchased Reaction Biology Corp

FLT1/VEGFR1 = target: T2, FLT1/VEGFR1 (Homo sapiens, UniProt P17948); details: single dose of 10 µM; 10 µM ATP as printed; read-out: Percent Inhibition, FLT1/VEGFR1
T2 construct: purchased Reaction Biology Corp
T2 sequence (P17948 27-1338): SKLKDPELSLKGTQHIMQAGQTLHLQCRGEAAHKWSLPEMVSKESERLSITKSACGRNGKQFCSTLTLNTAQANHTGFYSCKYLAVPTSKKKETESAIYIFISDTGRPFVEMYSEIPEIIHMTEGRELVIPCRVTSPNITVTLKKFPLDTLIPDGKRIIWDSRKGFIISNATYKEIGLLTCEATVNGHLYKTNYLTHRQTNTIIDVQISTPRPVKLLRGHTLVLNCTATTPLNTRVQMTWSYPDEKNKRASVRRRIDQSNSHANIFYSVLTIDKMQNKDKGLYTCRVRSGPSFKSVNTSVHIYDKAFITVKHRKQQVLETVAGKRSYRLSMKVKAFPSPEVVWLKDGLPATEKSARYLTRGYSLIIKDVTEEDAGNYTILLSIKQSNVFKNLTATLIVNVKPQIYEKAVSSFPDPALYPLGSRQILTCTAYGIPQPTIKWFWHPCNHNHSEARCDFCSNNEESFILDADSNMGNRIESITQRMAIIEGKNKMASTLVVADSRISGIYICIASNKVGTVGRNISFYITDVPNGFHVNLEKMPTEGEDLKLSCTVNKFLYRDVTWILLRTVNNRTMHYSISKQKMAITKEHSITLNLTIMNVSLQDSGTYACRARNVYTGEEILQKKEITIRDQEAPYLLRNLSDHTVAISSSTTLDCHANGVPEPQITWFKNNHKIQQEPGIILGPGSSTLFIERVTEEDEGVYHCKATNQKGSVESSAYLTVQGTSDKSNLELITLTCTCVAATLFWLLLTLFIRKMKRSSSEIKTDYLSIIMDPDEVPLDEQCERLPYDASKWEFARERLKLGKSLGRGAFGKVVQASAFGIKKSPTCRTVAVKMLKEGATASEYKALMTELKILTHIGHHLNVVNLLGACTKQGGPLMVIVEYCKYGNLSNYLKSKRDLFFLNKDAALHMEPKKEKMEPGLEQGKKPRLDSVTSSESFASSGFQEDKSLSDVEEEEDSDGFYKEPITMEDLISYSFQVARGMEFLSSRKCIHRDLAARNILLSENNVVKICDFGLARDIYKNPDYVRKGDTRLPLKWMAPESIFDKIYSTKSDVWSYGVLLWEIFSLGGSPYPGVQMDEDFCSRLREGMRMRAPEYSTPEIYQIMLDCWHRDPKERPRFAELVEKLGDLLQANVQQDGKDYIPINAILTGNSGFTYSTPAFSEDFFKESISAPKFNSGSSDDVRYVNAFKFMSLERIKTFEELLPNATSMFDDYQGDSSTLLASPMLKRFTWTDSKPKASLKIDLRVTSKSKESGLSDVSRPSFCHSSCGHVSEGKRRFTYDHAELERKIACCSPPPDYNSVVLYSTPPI

PDGFRα = target: T3, PDGFRα (Homo sapiens, UniProt P16234); details: single dose of 10 µM; 10 µM ATP as printed; read-out: Percent Inhibition, PDGFRα
T3 construct: purchased Reaction Biology Corp
T3 sequence (P16234 24-1089): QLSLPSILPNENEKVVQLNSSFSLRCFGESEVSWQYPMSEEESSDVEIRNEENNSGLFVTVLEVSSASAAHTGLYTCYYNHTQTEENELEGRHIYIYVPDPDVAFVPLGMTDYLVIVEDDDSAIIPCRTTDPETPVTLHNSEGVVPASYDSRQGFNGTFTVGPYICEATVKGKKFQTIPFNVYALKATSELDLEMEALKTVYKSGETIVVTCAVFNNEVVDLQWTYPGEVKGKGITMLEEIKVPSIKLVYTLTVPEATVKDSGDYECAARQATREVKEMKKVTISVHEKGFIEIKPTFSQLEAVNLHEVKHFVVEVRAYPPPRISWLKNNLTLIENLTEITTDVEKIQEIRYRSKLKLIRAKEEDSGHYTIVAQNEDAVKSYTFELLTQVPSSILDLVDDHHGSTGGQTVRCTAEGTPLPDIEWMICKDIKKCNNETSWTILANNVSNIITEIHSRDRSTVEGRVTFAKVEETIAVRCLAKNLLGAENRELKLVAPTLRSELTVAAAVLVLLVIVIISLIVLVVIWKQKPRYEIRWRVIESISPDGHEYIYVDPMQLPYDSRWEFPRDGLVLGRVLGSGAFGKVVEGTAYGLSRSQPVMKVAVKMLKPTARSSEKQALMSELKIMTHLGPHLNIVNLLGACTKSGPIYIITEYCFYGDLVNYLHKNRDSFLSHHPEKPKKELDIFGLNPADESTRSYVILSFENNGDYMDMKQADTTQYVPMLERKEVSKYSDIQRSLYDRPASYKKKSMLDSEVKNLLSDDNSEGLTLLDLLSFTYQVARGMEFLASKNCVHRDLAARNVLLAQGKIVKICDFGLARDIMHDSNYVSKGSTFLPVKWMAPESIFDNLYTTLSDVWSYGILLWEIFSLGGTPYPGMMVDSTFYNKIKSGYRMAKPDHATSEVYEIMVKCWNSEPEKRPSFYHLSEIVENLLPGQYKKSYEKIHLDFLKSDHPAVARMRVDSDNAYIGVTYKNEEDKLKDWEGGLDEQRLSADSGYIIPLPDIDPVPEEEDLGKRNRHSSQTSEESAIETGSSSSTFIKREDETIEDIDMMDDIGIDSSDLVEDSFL

c-MET = target: T4, c-MET (Homo sapiens, UniProt P08581); details: single dose of 10 µM; 10 µM ATP as printed; read-out: Percent Inhibition, c-MET
T4 construct: purchased Reaction Biology Corp
T4 sequence (P08581 25-1390): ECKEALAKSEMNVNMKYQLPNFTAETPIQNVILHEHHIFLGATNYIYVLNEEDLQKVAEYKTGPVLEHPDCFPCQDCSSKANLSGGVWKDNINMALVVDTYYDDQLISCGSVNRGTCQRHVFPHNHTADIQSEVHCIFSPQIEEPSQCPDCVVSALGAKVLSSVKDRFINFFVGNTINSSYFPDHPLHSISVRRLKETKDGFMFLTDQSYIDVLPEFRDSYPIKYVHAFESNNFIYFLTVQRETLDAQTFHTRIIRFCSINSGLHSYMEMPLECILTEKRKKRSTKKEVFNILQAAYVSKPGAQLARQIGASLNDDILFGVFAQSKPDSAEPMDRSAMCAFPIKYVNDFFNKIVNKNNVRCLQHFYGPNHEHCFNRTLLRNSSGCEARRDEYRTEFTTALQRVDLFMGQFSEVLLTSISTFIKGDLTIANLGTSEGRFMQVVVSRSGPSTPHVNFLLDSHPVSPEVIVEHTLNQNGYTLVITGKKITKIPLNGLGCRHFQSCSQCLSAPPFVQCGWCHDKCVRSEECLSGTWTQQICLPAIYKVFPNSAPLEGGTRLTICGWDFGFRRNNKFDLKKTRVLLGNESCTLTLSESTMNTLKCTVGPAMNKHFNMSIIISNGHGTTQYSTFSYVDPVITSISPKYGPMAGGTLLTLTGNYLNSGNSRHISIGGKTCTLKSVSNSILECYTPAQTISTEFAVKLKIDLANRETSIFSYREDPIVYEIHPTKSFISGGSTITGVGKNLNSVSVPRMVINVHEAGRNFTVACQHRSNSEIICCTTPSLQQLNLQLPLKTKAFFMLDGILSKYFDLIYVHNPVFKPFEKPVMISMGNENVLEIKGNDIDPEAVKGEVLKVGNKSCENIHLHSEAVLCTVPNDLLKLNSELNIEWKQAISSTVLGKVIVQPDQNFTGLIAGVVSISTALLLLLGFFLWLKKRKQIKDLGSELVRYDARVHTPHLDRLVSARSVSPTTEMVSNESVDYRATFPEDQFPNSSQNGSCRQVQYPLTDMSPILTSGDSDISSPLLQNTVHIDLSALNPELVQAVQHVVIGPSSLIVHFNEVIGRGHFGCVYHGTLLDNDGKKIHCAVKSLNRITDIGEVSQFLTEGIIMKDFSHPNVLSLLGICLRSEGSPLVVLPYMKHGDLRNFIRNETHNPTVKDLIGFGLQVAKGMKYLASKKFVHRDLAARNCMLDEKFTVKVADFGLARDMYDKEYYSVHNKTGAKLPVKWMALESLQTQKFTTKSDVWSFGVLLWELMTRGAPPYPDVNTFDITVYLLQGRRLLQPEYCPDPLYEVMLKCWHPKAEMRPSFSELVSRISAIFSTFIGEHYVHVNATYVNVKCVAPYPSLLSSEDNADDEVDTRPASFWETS

T1 sequence (P00533 25-1210): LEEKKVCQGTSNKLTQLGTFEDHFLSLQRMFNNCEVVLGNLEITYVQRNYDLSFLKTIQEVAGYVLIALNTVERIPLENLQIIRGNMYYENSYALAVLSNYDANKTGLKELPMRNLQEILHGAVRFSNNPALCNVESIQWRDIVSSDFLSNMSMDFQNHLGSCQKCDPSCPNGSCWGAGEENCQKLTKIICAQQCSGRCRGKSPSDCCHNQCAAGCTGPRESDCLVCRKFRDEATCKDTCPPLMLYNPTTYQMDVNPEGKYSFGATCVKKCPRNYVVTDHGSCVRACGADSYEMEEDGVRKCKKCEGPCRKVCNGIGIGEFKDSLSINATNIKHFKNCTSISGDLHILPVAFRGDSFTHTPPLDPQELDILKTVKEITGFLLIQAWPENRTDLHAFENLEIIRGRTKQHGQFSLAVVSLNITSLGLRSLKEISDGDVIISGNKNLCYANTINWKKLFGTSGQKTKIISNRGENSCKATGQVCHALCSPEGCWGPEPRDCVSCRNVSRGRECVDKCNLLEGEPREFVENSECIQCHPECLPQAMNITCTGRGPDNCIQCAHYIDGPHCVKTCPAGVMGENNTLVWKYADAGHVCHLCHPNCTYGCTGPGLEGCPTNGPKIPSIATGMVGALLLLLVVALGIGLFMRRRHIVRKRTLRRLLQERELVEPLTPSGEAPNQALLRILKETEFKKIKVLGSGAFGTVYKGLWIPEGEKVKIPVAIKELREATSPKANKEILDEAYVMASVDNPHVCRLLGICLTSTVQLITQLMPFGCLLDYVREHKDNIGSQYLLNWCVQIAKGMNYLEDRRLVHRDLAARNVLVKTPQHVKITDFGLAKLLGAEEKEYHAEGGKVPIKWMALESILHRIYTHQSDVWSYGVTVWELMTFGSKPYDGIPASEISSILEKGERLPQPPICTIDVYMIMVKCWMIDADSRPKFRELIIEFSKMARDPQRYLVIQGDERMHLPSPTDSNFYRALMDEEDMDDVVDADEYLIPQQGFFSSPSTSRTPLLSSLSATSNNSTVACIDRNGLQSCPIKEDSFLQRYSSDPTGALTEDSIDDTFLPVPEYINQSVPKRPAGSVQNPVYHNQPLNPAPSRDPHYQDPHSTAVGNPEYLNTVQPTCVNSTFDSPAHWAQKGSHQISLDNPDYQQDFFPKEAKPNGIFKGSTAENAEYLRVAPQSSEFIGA

In the case of `COc1ccc(Oc2nc(Nc3ccc(N4CCOCC4)cc3)ncc2NC(=O)c2ccc3c(c2)OCO3)cc1` [5a, N-(4-(4-Methoxyphenoxy)-2-((4-morpholinophenyl)amino)pyrimidin-5-yl)benzo[d][1,3]dioxole-5-carboxamide], the inhibition at 10 µM (EGFR) is reported as 27 ± 0.9%, the inhibition at 10 µM (FLT1/VEGFR1) is reported as -2.4 ± 1.7% and the inhibition at 10 µM (PDGFRα) is reported as 24 ± 0.4%. For the same compound, the inhibition at 10 µM (c-MET) was 12 ± 13.7%.

Reference: PMC8468039, “Development of New Meridianin/Leucettine-Derived Hybrid Small Molecules as Nanomolar Multi-Kinase Inhibitors with Antitumor Activity” (Biomedicines, 2021)
